One series has as its target PDE10 from pig striatum (Sus scrofa, UniProt A0A287B941). In words: Inhibition of PDE10 from pig striatum (Method A / Method B), [3H]-cAMP SPA. The format is biochemical. How it is done:
Striatum from male Wistar rats (180-200 g), male hybrid pigs (150 kg) and male guinea pigs (CRL (HA), 500 g) respectively were collected and frozen at −70° C. […] The supernatant is called the cytosolic fraction and was removed and stored on ice. The pellet was resuspended in the same buffer, but containing 1% Triton and incubated for 45 min at 4° C. Both fractions were independently applied onto a 5 ml Hi Trap™ QHP column at the Äkta-FPLC. After washing the columns the bound PDE protein was eluted with an increasing sodium chloride gradient (0 mM-500 mM sodium chloride) in 50 mM Tris/Mg-buffer at 4° C. for the cytosolic fraction and in the presence of 1% Triton for the membrane fraction. […] The fractions with PDE10-activity were pooled and frozen in aliquots until use at −20° C. PDE10 activity was determined in a one step procedure in microtiter plates. The reaction mixture of 100 μl contained 50 mM Tris-HCl/5 mM MgCl2 buffer (pH=7.4) (Sigma, Deisenhofen, Germany; Merck, Darmstadt, Germany) 0.1 μM [^3H]-cAMP (Amersham, Buckinghamshire, UK) and the enzyme. Nonspecific activity was tested without the enzyme. The reaction was initiated by addition of the substrate solution and was carried out at 37 ° C. for 30 minutes. Enzymatic activity was stopped by addition of 25 μl YSi-SPA-beads (Amersham-Pharmacia). One hour later the mixture was measured in a liquid scintillation counter for microtiter plates (Microbeta Trilux). To pipette the incubation mixture a robot Biomek (Fa. Beckman) is used. […] The optimal amount of enzyme in the assay has been determined and optimised for each enzyme preparation and substrate separately before using the enzyme in compound testing. For determination of IC50 values the Hill-plot, 2-parameter-model, was used. […] Striatum from male hybrid pigs (150 kg) were collected and frozen at −70° C. […] The supernatant was removed and the pellet was resuspended in the same buffer, but containing 1% Triton and incubated for 45 min at 4° C. The membrane fraction was applied onto a 5 ml Hi Trap™ QHP column at the Äkta-FPLC. After washing the column the bound PDE protein was eluted with an increasing sodium chloride gradient (0 mM-500 mM sodium chloride) in 50 mM Tris/Mg-buffer at 4° C. in the presence of 1% Triton. […] The fractions with PDE10-activity were pooled and frozen in aliquots until use at −20° C. PDE10 activity was determined in a one step procedure in microtiterplates. The reaction mixture of 100 μl contained 50 mM Tris-HCl/5 mM MgCl2 buffer (pH=7.4) (Sigma, Deisenhofen, Germany; Merck, Darmstadt, Germany) 0.1 μM [3H]-cAMP (Amersham, Buckinghamshire, UK) and the enzyme. Nonspecific activity was tested without the enzyme. The reaction was initiated by addition of the substrate solution and was carried out at 37° C. for 30 minutes. Enzymatic activity was stopped by addition of 25 μl YSi-SPA-beads (Amersham-Pharmacia). One hour later the mixture was measured in a liquid scintillation counter for microtiterplates (Microbeta Trilux). To pipette the incubation mixture a robot Biomek (Fa. Beckman) is used. […] The optimal amount of enzyme in the assay has been determined and optimised for each enzyme preparation before using the enzyme in compound testing. For determination of IC50 values the Hill-plot, 2-parameter-model, was used.

A further series deals with T1, human recombinant PDE10A (Homo sapiens, UniProt Q9Y233).
T1 construct: made in house; host or cells: SF21 insect cells (baculovirus)
As to the kind of experiment: Inhibition of human recombinant PDE10A (Method B), [3H]-cAMP SPA. In kind it is biochemical. To be noted: read-out: PDE10 inhibition IC50 PDE10A human. How it is done:
The gene was than inserted into a baculovirus vector, ligated with the baculovirus DNA. The enzyme-protein was expressed in SF21-cells. The enzyme was isolated from these cells by harvesting the cells by a centrifugation at 200 g to collect the cells. The cells were resuspended in 50 mM Tris-HCl/5 mM MgCl2 buffer (pH=7.4) and lysed by a sonication of the cells. The cytosolic PDE10A was obtained by a centrifugation at 48000 g for 1 h in the supernatant and stored at −70 ° C. PDE10 activity was determined in a one step procedure in microtiterplates. […] Nonspecific activity was tested without the enzyme. The reaction was initiated by addition of the substrate solution and was carried out at 37° C. for 30 minutes. Enzymatic activity was stopped by addition of 25 μl YSi-SPA-beads (Amersham-Pharmacia). One hour later the mixture was measured in a liquid scintillation counter for microtiterplates (Microbeta Trilux). To pipette the incubation mixture a robot Biomek (Fa. Beckman) is used. […] For determination of IC50 values the Hill-plot, 2-parameter-model, was used.

Series [1] deals with haloperidol-induced catalepsy. To be noted: rats; cited from earlier work.
The test system of series [2] is dopamine concentration in rat brain. To be noted: cited from earlier work.
The subject of series [3] is apomorphine-induced stereotypies. Particulars: rats; cited from earlier work.

T1 sequence (Q9Y233 1-779 isoform Q9Y233-1): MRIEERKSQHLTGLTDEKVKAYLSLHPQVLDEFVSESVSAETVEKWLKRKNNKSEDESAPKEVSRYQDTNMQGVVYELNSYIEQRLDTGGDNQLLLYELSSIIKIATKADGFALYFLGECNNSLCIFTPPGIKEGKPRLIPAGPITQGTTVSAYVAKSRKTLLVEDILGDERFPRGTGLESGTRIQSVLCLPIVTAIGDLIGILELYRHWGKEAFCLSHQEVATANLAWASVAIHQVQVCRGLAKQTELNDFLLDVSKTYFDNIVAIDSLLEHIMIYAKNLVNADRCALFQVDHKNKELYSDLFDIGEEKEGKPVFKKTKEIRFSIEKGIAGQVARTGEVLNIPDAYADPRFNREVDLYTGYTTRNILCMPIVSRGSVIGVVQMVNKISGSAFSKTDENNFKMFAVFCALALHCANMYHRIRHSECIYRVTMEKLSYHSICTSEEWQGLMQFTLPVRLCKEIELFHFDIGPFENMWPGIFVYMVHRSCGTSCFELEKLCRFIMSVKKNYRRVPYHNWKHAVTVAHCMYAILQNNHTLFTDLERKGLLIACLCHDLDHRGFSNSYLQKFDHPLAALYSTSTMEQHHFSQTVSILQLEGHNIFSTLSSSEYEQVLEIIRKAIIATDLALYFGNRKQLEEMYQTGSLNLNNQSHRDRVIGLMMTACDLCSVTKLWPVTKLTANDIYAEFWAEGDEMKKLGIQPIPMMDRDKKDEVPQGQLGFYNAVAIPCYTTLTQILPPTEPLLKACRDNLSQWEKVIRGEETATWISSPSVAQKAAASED

What is called IC50 is the point on the concentration scale where inhibition reaches its midpoint. `CCc1nc(C)c2c(NS(C)(=O)=O)nc3ccccc3n12` [Example 2, N-(1-Ethyl-3-methyl-imidazo(1,5-a)quinoxalin-4-yl)-methanesulfonamide] yielded a half-inhibitory concentration (IC50) on PDE10 from pig striatum of no less than 100 nM.

The term melting point denotes the temperature, or range, at which the solid turns liquid. In the case of `CCc1nc(C)c2c(NS(C)(=O)=O)nc3ccc(F)cc3n12` [Example 3, N-(1-Ethyl-8-fluoro-3-methyl-imidazo(1,5-a)quinoxalin-4-yl)-methanesulfonamide], the melting point was in the range of 268 to 269 °C. At PDE10 from pig striatum, this compound returned an IC50 of no less than 100 nM.

For `CCCc1nc(C)c2c(NS(C)(=O)=O)nc3ccc(F)cc3n12` [Example 4, N-(8-Fluoro-3-methyl-1-propyl-imidazo(1,5-a)quinoxalin-4-yl)-methanesulfonamide], the melting point lay within 277 to 280 °C. In addition, the IC50 against PDE10 from pig striatum fell in the range of 10 to 100 nM.

As for `CCc1nc(C)c2c(Cl)nc3ccccc3n12` [Example B3], the melting point was in the range of 125 to 128 °C. For the same compound, the IC50 against PDE10 from pig striatum is 10 to 100 nM.

For `CCCc1nc(C)c2c(Cl)nc3cc(OC)ccc3n12` [Example B15], the melting point lay in the range of 154 to 159 °C. For the same compound, the IC50 on human recombinant PDE10A was 10 to 100 nM.

`CCCc1nc(C)c2c(NS(C)(=O)=O)nc3cc(OC)ccc3n12` [Example 15, N-(7-Methoxy-3-methyl-1-propyl-imidazo[1,5-a]quinoxalin-4-yl)-methanesulfonamide] came in with a melting point of 222 to 226 °C. The compound also came in with an IC50 at PDE10 from pig striatum of 10 to 100 nM. Also, the IC50 on human recombinant PDE10A is 10 to 100 nM.

For the compound `CCCc1nc(C)c2c(NS(C)(=O)=O)nc3ccc(OC)cc3n12` [Example 9, N-(8-Methoxy-3-methyl-1-propyl-imidazo[1,5-a]quinoxalin-4-yl)-methanesulfonamide], the melting point fell in the range of 234 to 237 °C. The IC50 at human recombinant PDE10A fell in the range of 10 to 100 nM.

Consider `Cc1nc(C2CCCCC2)n2c1c(NS(C)(=O)=O)nc1ccc(OCC3CC3)cc12` [Example 12, N-(1-Cyclohexyl-8-cyclopropylmethoxy-3-methyl-imidazo[1,5-a]quinoxalin-4-yl)-methanesulfonamide], for which the melting point was 259 to 261 °C. Besides, the concentration for half-maximal inhibition (IC50) on PDE10 from pig striatum is no more than 10 nM. In addition, the IC50 at human recombinant PDE10A was 10 to 100 nM.

In the case of `COc1ccc2nc(Cl)c3c(C)nc(C4CCCCC4)n3c2c1` [Example B11], the melting point was in the range of 212 to 215 °C. Besides, the IC50 on human recombinant PDE10A fell in the range of 10 to 100 nM.

On PDE10 from pig striatum, `CCCc1nc(C)c2c(C#N)nc3ccc(F)cc3n12` [Example 1, 8-Fluoro-3-methyl-1-propyl-imidazo(1,5-a)quinoxaline-4-carbonitrile] showed an IC50 of 10 to 100 nM.

For the compound `COc1ccc(Cc2nccc3cc(OC)c(OC)cc23)cc1OC` [Papaverine], the “effect on haloperidol-induced catalepsy” value in series [1] is “increases haloperidol-induced catalepsy”. The “effect on dopamine concentration in rat brain” value in series [2] is reported as “reducing dopamine concentration”. Besides, the “effect on apomorphine-induced stereotypies” value in series [3] is reported as “reduces apomorphine-induced stereotypies”.

As to `Cc1nc(C2CCCCC2)n2c1c(Cl)nc1ccc(F)cc12` [Example B7], the melting point was 205 to 210 °C. This compound also showed a half-maximal inhibitory concentration (IC50) at PDE10 from pig striatum of 10 to 100 nM.

For `CCc1nc(C)c2c(Cl)nc3ccc(N4CCCCC4)cc3n12` [Example B2, 4-Chloro-1-ethyl-3-methyl-8-piperidin-1-yl-imidazo(1,5-a)quinoxaline], the melting point lay in the range of 160 to 163 °C. The IC50 at PDE10 from pig striatum was 10 to 100 nM.

`CCCc1nc(C)c2c(Cl)nc3ccc(F)cc3n12` [Example B6, 4-Chloro-8-fluoro-3-methyl-1-propyl-imidazo(1,5-a)quinoxaline] had a melting point of 133 to 135 °C. In addition, the IC50 on PDE10 from pig striatum was in the range of 10 to 100 nM.

In turn, `Cc1nc(C2CCCCC2)n2c1c(NS(C)(=O)=O)nc1ccc(F)cc12` [Example 6, N-(1-Cyclohexyl-8-fluoro-3-methyl-imidazo(1,5-a)quinoxalin-4-yl)-methanesulfonamide] gave a melting point of 291 to 293 °C. The compound further came in with an IC50 on PDE10 from pig striatum of 10 to 100 nM.

As for `Cc1nc(-c2ccccc2Cl)n2c1c(NS(C)(=O)=O)nc1ccc(F)cc12` [Example 5, N-(1-(2-Chlorphenyl)-8-fluoro-3-methyl-imidazo(1,5-a)quinoxalin-4-yl)-methanesulfonamide], on PDE10 from pig striatum, the IC50 was 10 to 100 nM.

Compound `CCc1nc(C)c2c(NS(C)(=O)=O)nc3ccc(N4CCCCC4)cc3n12` [Example 7, N-[1-Ethyl-3-methyl-8-(piperidin-1-yl)-imidazo(1,5-a)quinoxalin-4-yl]-methanesulfonamide] yielded a melting point of 223 to 227 °C. On PDE10 from pig striatum, this compound yielded an IC50 of 10 to 100 nM.

The compound `COc1ccc2c(c1)nc(NS(C)(=O)=O)c1c(C)nc(-c3ccccc3Cl)n12` [Example 14, N-[1-(2-Chloro-phenyl)-7-methoxy-3-methyl-imidazo[1,5-a]quinoxalin-4-yl]-methanesulfonamide] had a melting point of 277 to 278 °C. The compound also had an IC50 on PDE10 from pig striatum of 10 to 100 nM. For the same compound, the IC50 at human recombinant PDE10A lay within 10 to 100 nM.

For the compound `Cc1nc(C2CCCCC2)n2c1c(NS(C)(=O)=O)nc1ccc(OCc3ccc4ccccc4n3)cc12` [Example 13, N-[1-Cyclohexyl-3-methyl-8-(quinolin-2-ylmethoxy)-imidazo[1,5-a]quinoxalin-4-yl]-methanesulfonamide], the melting point fell in the range of 255 to 258 °C. In addition, the IC50 against PDE10 from pig striatum is no more than 10 nM. Besides, the IC50 at human recombinant PDE10A is no more than 10 nM.

Consider `CCCc1nc(C)c2c(NS(C)(=O)=O)nc3ccc(OCC4CC4)cc3n12` [Example 11, N-(8-Cyclopropylmethoxy-3-methyl-1-propyl-imidazo[1,5-a]quinoxalin-4-yl)-methanesulfonamide], for which the melting point was in the range of 240 to 241 °C. Further, on human recombinant PDE10A, the IC50 was no more than 10 nM.

`COc1ccc2nc(NS(C)(=O)=O)c3c(C)nc(C4CCCCC4)n3c2c1` [Example 10, N-(1-Cyclohexyl-8-methoxy-3-methyl-imidazo[1,5-a]quinoxalin-4-yl)-methanesulfonamide] had a melting point of 287 to 288 °C. The IC50 on human recombinant PDE10A is 10 to 100 nM.

`Cc1nc(C2CCCCC2)n2c1c(Cl)nc1ccc(OCC3CC3)cc12` [Example B13] yielded a melting point of 165 to 168 °C. Moreover, the IC50 at human recombinant PDE10A is no less than 100 nM.

As for `Cc1nc(C2CCCCC2)n2c1c(Cl)nc1ccc(Cl)cc12` [Example B9], the melting point lay in the range of 244 to 248 °C. For the same compound, on PDE10 from pig striatum, the IC50 is no less than 100 nM.

For `COc1ccc2nc(C#N)c3c(C)nc(C4CCCCC4)n3c2c1` [Example 8, 1-Cyclohexyl-8-methoxy-3-methyl-imidazo[1,5-a]quinoxaline-4-carbonitrile], the melting point was in the range of 244 to 248 °C. On PDE10 from pig striatum, this compound registered an IC50 of 10 to 100 nM. In addition, on human recombinant PDE10A, the IC50 was no less than 100 nM.

`CCCc1nc(C)c2c(Cl)nc3ccc(OCC4CC4)cc3n12` [Example B12] displayed a melting point of 103 to 105 °C. At human recombinant PDE10A, the IC50 lay in the range of 10 to 100 nM.

Source of the values: US20090143391A1, “Aryl and heteroaryl fused imidazo [1,5-a] pyrazines as inhibitors of phosphodiesterase 10” (priority 2007, published 2009).
